From paper PMC8745332, “Synthesis, Molecular Docking and Biological Characterization of Pyrazine Linked 2-Aminobenzamides as New Class I Selective Histone Deacetylase (HDAC) Inhibitors with Anti-Leukemic Activity” (International Journal of Molecular Sciences, 2021)
Where two headings read alike, the source gives them in different places.

Legend:
[1] = target: T1, human HDAC4 (Homo sapiens, UniProt P56524); assay: HDAC4 dose response, substrate Abz-SRGGK(thio-TFA)FFRR-NH2; type: biochemical
T1 construct: made in house
T1 sequence (P56524 whole entry): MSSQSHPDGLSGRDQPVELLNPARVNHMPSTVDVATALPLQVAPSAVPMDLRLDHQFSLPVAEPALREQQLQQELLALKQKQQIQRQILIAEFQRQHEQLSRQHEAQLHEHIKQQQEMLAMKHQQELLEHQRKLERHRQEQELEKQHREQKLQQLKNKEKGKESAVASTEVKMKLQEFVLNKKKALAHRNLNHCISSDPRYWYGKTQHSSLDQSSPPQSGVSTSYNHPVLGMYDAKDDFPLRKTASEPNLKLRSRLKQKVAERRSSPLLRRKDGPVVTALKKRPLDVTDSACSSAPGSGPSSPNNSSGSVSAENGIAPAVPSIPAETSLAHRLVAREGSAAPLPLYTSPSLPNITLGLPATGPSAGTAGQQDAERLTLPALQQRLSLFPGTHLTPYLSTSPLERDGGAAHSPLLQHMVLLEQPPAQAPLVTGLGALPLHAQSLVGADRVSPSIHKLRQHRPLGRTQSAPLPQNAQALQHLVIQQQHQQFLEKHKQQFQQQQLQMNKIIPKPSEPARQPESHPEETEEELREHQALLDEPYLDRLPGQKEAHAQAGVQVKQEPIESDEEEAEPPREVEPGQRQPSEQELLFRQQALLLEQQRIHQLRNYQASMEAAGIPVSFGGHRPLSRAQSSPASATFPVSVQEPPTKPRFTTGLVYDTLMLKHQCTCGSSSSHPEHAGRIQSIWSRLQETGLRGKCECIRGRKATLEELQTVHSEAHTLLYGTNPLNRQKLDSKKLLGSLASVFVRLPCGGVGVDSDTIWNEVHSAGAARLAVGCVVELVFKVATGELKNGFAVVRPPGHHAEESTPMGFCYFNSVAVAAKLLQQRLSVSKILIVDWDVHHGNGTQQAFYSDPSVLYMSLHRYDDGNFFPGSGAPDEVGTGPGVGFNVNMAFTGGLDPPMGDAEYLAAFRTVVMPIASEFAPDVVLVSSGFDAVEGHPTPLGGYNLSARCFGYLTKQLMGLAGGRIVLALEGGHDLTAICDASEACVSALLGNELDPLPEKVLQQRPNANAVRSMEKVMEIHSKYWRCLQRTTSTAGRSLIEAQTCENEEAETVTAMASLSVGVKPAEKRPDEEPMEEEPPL
Description: (§1) Recombinant human HDAC1, HDAC2, and HDAC3/NCOR1 were purchased from ENZO Life Sciences AG (Lausen, CH). Recombinant human HDAC 4, HDAC5, HDAC7, HDAC9 and HDAC11 were produced by Barinka lab in Prague, as described before. Recombinant human HDAC8 was produced by Romier et al. (IGBMC, Univ. Strasbourg), as described in [55].
(§2) The determination of dose response curves for HDAC4, 5, 7 and 9 was performed as previously described with compound 4 as substrate (Abz-SRGGK(thio-TFA)FFRR-NH2). The substrate concentration was 50 µM and the enzyme concentration was 10 nM for HDAC4 and HDAC5, 5 nM for HDAC7 and 20 nM for HDAC9. HDAC11 inhibition assay was performed as described before. The fluorescence intensity was recorded with an Envision 2104 Multilabel Plate Reader (PerkinElmer, Waltham, MA) with an excitation wavelength of 330 ± 75 nm and an emission wavelength of 430 ± 8 nm.

[2] = target: T2, human HDAC2 (Homo sapiens, UniProt Q92769); assay: In vitro HDAC2 inhibition assay, fluorogenic p53 peptide Ac-RHKK(Acetyl)-AMC; type: biochemical; settings: 3 nM HDAC2, 20 µM substrate, 30 min, 37 °C
T2 construct: purchased ENZO Life Sciences AG (Lausen, CH)
T2 sequence (Q92769 whole entry): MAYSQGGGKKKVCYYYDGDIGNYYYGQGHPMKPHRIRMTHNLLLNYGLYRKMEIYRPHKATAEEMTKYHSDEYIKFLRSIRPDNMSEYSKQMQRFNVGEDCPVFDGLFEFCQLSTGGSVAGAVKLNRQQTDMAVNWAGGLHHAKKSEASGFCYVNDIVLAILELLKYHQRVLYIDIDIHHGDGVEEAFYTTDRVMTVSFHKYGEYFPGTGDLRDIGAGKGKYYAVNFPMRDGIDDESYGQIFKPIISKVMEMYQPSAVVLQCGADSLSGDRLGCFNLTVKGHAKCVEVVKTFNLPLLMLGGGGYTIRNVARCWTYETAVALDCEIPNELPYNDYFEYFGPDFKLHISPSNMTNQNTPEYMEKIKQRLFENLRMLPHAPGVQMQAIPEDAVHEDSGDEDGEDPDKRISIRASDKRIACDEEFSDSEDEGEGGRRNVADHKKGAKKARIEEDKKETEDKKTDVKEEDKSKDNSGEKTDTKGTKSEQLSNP
Description: as §1
(§3) The in vitro testing on recombinant HDACs 1-3 were performed with a fluorogenic peptide derived from p53 (Ac-RHKK(Acetyl)-AMC). The measurements were performed in an assay buffer (50 mM Hepes, 150 mM NaCl, 5 mM MgCl2, 1 mM TCEP and 0.2 mg/mL BSA, pH 7.4 adjusted with NaOH) at 37 °C. Inhibitors at different concentrations were incubated with 10 nM HDAC1, 3 nM HDAC2 or 3 nM HDAC3 (final concentration) for at least 5 min. The reaction was started with the addition of the fluorogenic substrate (20 µM final concentration) and incubated for 30 min for HDAC2 and HDAC3 and 90 min for HDAC1. The reaction was stopped with a solution of 1 mg/mL trypsin and 20 µM SAHA in 1 mM HCl and incubated for 1 h at 37 °C. […] The received fluorescence intensities were normalized with uninhibited reaction as 100% and the reaction without enzyme as 0%. A nonlinear regression analysis was done to determine the IC50 value.

[3] = target: T3, human HDAC11 (Homo sapiens, UniProt Q96DB2); assay: HDAC11 inhibition assay; type: biochemical
T3 construct: made in house
T3 sequence (Q96DB2 1-347): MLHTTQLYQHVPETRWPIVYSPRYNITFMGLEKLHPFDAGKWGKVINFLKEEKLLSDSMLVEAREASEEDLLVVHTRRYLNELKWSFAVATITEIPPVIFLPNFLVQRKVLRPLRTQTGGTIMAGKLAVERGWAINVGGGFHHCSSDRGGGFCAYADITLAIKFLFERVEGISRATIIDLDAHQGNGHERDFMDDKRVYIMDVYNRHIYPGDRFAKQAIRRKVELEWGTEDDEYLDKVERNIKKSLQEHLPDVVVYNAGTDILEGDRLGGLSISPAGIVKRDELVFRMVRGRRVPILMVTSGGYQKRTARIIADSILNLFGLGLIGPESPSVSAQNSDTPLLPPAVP
Description: as §1, §2

[4] = target: T4, HDAC6 (Homo sapiens, UniProt Q9UBN7); assay: HDAC6 inhibition (HDAC subtype panel); type: biochemical
T4 construct: made in house
T4 sequence (Q9UBN7 1-1215): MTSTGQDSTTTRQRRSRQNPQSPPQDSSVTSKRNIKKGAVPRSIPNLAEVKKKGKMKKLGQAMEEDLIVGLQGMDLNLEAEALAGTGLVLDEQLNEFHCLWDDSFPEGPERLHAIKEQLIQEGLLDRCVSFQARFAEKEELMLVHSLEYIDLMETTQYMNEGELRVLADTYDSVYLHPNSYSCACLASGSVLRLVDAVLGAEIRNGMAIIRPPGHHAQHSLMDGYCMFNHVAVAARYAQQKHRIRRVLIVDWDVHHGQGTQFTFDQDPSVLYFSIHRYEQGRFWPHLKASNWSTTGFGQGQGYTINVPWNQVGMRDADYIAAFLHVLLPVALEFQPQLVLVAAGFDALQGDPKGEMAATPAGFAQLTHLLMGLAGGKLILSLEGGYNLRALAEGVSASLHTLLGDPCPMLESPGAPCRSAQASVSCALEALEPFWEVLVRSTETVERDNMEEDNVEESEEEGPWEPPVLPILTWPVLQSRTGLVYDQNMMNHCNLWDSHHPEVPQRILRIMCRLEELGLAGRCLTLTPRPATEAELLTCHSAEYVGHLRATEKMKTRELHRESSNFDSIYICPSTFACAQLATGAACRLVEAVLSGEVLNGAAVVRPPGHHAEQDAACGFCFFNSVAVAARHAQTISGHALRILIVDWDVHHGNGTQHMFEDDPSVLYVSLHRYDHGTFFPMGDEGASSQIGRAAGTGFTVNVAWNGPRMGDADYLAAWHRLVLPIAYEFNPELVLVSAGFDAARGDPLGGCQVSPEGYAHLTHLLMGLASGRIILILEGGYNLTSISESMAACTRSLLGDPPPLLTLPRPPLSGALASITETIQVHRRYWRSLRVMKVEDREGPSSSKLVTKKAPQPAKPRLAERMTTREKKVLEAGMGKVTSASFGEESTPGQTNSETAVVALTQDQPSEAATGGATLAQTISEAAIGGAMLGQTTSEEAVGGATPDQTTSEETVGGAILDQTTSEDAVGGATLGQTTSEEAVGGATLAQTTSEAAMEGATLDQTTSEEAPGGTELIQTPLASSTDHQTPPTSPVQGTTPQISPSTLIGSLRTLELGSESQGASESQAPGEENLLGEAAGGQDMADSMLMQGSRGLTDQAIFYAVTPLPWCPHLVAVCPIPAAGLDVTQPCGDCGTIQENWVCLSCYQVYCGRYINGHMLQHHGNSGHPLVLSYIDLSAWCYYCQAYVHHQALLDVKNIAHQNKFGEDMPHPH

[5] = target: T5, human HDAC1 (Homo sapiens, UniProt Q13547); assay: In vitro HDAC1 inhibition assay, fluorogenic p53 peptide Ac-RHKK(Acetyl)-AMC; type: biochemical; settings: 10 nM HDAC1, 20 µM substrate, 90 min, 37 °C
T5 construct: purchased ENZO Life Sciences AG (Lausen, CH)
T5 sequence (Q13547 whole entry): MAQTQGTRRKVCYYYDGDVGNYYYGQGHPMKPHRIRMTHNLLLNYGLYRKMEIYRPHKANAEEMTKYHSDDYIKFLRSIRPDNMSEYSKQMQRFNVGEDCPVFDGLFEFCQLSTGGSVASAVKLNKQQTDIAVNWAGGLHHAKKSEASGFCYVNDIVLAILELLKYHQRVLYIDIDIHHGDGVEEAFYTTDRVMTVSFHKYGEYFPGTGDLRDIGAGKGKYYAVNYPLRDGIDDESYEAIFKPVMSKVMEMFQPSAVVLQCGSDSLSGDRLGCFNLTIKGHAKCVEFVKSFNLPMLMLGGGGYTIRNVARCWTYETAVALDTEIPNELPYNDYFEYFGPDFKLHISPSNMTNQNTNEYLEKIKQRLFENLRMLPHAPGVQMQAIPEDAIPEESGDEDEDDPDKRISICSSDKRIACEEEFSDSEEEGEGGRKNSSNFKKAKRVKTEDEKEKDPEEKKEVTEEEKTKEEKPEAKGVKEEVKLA
Description: as §1, §3

[6] = test system: MV4-11 cells; assay: Apoptosis in MV4-11 cells, annexin-V-FITC/PI flow cytometry; type: cell-based, human; settings: for IC50: Homo sapiens; for induction of early and late apoptosis: 0.5 µM, 48 h
Description: We measured the induction of early (increased exposure of phosphatidylserine on the cell surface and therefore positive staining for annexin-V-FITC) and late apoptosis (positivity for annexin-V and accumulation of propidium iodide, PI) by flow cytometry.
All leukemic cells were kept in RPMI-1640 medium supplemented with 10% FBS and 1%penicillin/streptomycin (Sigma-Aldrich, Taufkirchen, Germany) under standard culture conditions at 37 °C and a 5% CO2 humidified atmosphere. Cells were authenticated as mentioned by us.

[7] = target: T6, human HDAC3/NCOR1 (Homo sapiens, UniProt O15379); assay: In vitro HDAC3 inhibition assay, fluorogenic p53 peptide Ac-RHKK(Acetyl)-AMC; type: biochemical
T6 construct: purchased ENZO Life Sciences AG (Lausen, CH)
T6 sequence (O15379 whole entry): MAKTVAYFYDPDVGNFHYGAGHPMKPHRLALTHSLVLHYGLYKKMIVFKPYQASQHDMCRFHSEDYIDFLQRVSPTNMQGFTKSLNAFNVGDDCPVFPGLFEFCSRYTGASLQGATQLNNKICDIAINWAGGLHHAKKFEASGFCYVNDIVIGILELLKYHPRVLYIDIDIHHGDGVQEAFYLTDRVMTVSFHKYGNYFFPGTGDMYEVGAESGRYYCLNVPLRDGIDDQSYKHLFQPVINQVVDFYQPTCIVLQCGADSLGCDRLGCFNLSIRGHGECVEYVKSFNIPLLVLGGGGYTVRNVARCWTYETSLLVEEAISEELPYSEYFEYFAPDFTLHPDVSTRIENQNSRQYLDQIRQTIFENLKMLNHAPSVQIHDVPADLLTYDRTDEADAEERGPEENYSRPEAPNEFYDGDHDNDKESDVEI
T6 sequence (O75376 395-489 partner limits assumed): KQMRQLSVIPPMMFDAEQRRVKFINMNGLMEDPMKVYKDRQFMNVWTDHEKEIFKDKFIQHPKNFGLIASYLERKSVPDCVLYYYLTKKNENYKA
Description: as §1, §3

SMILES | IC50 [1] [µM] | IC50 [2] [µM] | IC50 [3] [µM] | IC50 [4] [µM] | IC50 [5] [µM] | IC50 ([6]; MV4-11, 48 h, read-out: IC50 (apoptosis, annexin-V/PI)) [nM] | IC50 ([6]; MV4-11 cells, 24 h, annexin-V/PI, read-out: IC50 for apoptosis induction) [nM] | IC50 ([6]; MV4-11 cells, after 48 h, read-out: IC50 values for growth inhibition) [nM] | induction of early and late apoptosis ([6]; MV4-11 cells) | fold more effective than MS-275 (apoptosis induction) ([6]; MV4-11 cells, versus MS-275) | IC50 ([7]; 3 nM HDAC3, 20 µM substrate, 30 min, 37 °C) [µM] | inhibition at 1 µM ([7]; read-out: HDAC3 % inhibition @ 1 µM) [%]
Nc1ccccc1NC(=O)c1cnc(N2CCN(Cc3c[nH]c4ccccc34)CC2)cn1 [19f, 5-(4-((1H-indol-3-yl)methyl)piperazin-1-yl)-N-(2-aminophenyl)pyrazine-2-carboxamide] | > 20 | 0.28 ± 0.01 | > 20 | > 20 | 0.13 ± 0.01 | 194 | 255 | ~300 | early and late apoptosis in nearly the whole MV4-11 cell population | at least 4 fold | 0.31 ± 0.01 | –
Cn1cc(CCN2CCN(c3cnc(C(=O)Nc4cc(-c5cccs5)ccc4N)cn3)CC2)c2ccccc21 [21a, N-(2-Amino-5-(thiophen-2-yl)phenyl)-5-(4-(2-(1-methyl-1H-indol-3-yl)ethyl)piperazin-1-yl)pyrazine-2-carboxamide] | > 20 | 2.47 ± 0.22 | 7.5 ± 1 | > 20 | 0.26 ± 0.01 | – | – | – | slightly increased the number of MV4-11 cells in late apoptosis | – | – | 0
